# Laboratory results as given in US7902201B2, “Isoxazolo-pyrazine derivatives” (Hoffmann-La Roche Inc., priority 2007, dated 2011).
# Biological target: T1, GABA A receptors containing the α5 subunit (α5β3γ2) (Homo sapiens, UniProt P18507+P31644)
# T1 construct: expressed in transfected cells; host or cells: HEK293 (transiently transfected); membranes prepared from cell pellets
# Test: [3H]flumazenil competition binding assay, human GABA A receptor (hKi)
# Conditions: human receptor transiently transfected in HEK293 cells, means of two determinations
# Method: The affinity of compounds at GABA A receptor subtypes was measured by competition for [3H]flumazenil (85 Ci/mmol; Roche) binding to HEK293 cells expressing rat (stably transfected) or human (transiently transfected) receptors of composition α1β3γ2, α2β3γ2, α3β3γ2 and α5β3γ2.
# Cell pellets were suspended in Krebs-tris buffer (4.8 mM KCl, 1.2 mM CaCl2, 1.2 mM MgCl2, 120 mM NaCl, 15 mM Tris; pH 7.5; binding assay buffer), homogenized by polytron for ca. 20 sec on ice and centrifuged for 60 min at 4° C. (50000 g; Sorvall, rotor: SM24=20000 rpm). The cell pellets were resuspended in Krebs-tris buffer and homogenized by polytron for ca. 15 sec on ice. Protein was measured (Bradford method, Bio-Rad) and aliquots of 1 mL were prepared and stored at −80° C.
# Radioligand binding assays were carried out in a volume of 200 μL (96-well plates) which contained 100 μL of cell membranes, [3H]flumazenil at a concentration of 1 nM for α1, α2, α3 subunits and 0.5 nM for α5 subunits and the test compound in the range of […]. Nonspecific binding was defined by 10^−5 M diazepam and typically represented less than 5% of the total binding. Assays were incubated to equilibrium for 1 hour at. 4° C. and harvested onto GF/C uni-filters (Packard) by filtration using a Packard harvester and washing with ice-cold wash buffer (50 mM Tris; pH 7.5). After drying, filter-retained radioactivity was detected by liquid scintillation counting. Ki values were calculated using Excel-Fit (Microsoft) and are the means of two determinations.
row,Ki [µM],Molecule
1,0.011,"CC(C)NC(=O)c1cnc(OCc2conc2-c2ccc(F)cc2)cn1 [Example 15, 5-[3-(4-Fluoro-phenyl)-isoxazol-4-ylmethoxy]-pyrazine-2-carboxylic acid isopropylamide]"
2,0.0012,"Cc1onc(-c2ccccc2)c1COc1cnc(C(=O)NC2CCOCC2)cn1 [Example 6, 5-(5-Methyl-3-phenyl-isoxazol-4-ylmethoxy)-pyrazine-2-carboxylic acid (tetrahydro-pyran-4-yl)-amide]"
3,0.024,"O=C(NCC(F)(F)F)c1cnc(OCc2conc2-c2ccc(F)cc2)cn1 [Example 13, 5-[3-(4-Fluoro-phenyl)-isoxazol-4-ylmethoxy]-pyrazine-2-carboxylic acid (2,2,2-trifluoro-ethyl)-amide]"
4,0.0074,"C[C@H](CO)NC(=O)c1cnc(OCc2conc2-c2ccc(Cl)cc2)cn1 [Example 18, 5-[3-(4-Chloro-phenyl)-isoxazol-4-ylmethoxy]-pyrazine-2-carboxylic acid ((R)-2-hydroxy-1-methyl-ethyl)-amide]"
5,0.021,"O=C(NCC1CC1)c1cnc(OCc2conc2-c2ccc(F)cc2)cn1 [Example 14, 5-[3-(4-Fluoro-phenyl)-isoxazol-4-ylmethoxy]-pyrazine-2-carboxylic acid cyclopropylmethyl-amide]"
6,0.0012,"Cc1onc(-c2ccccc2)c1COc1cnc(C(=O)NC(C)C)cn1 [Example 3, 5-(5-Methyl-3-phenyl-isoxazol-4-ylmethoxy)-pyrazine-2-carboxylic acid isopropylamide]"
7,0.0003,"Cc1onc(-c2ccc(F)cn2)c1COc1cnc(C(=O)NC2CCOCC2)cn1 [Example 12, 5-[3-(5-Fluoro-pyridin-2-yl)-5-methyl-isoxazol-4-ylmethoxy]-pyrazine-2-carboxylic acid (tetrahydro-pyran-4-yl)-amide]"
8,0.0074,"Cc1onc(-c2ccccc2)c1COc1cnc2ccccc2n1 [Example 8, 2-(5-Methyl-3-phenyl-isoxazol-4-ylmethoxy)-quinoxaline]"
9,0.0143,"O=C(NC1CCOCC1)c1cnc(OCc2conc2-c2ccccn2)cn1 [Example 19, 5-(3-Pyridin-2-yl-isoxazol-4-ylmethoxy)-pyrazine-2-carboxylic acid (tetrahydro-pyran-4-yl)-amide]"
10,0.0019,"Cc1onc(-c2ccccc2)c1COc1cnc(C(=O)NC2CC2)cn1 [Example 5, 5-(5-Methyl-3-phenyl-isoxazol-4-ylmethoxy)-pyrazine-2-carboxylic acid cyclopropylamide]"
11,0.029,"COC(=O)c1cnc(OCc2c(-c3ccccc3)noc2C)cn1 [Example 1, 5-(5-Methyl-3-phenyl-isoxazol-4-ylmethoxy)-pyrazine-2-carboxylic acid methyl ester]"
12,0.0096,"CC(C)NC(=O)c1cnc(OCc2conc2-c2ccccn2)cn1 [Example 20, 5-(3-Pyridin-2-yl-isoxazol-4-ylmethoxy)-pyrazine-2-carboxylic acid isopropylamide]"
13,0.0031,"Cc1onc(-c2ccccc2)c1COc1cnc(C(=O)NCC2CC2)cn1 [Example 2, 5-(5-Methyl-3-phenyl-isoxazol-4-ylmethoxy)-pyrazine-2-carboxylic acid cyclopropylmethyl-amide]"
14,0.0108,"Cc1onc(-c2ccccc2)c1COc1cnc(C(=O)NC(C)(C)C)cn1 [Example 4, 5-(5-Methyl-3-phenyl-isoxazol-4-ylmethoxy)-pyrazine-2-carboxylic acid tert-butylamide]"
15,0.0106,"Cc1onc(-c2ccccc2)c1COc1cnc(C(=O)NC2CCC(F)(F)CC2)cn1 [Example 7, 5-(5-Methyl-3-phenyl-isoxazol-4-ylmethoxy)-pyrazine-2-carboxylic acid (4,4-difluoro-cyclohexyl)-amide]"
16,0.0096,"Cc1onc(-c2ccccc2)c1CNc1cnc(C(=O)NC(C)C)cn1 [Example 9, 5-[(5-Methyl-3-phenyl-isoxazol-4-ylmethyl)-amino]-pyrazine-2-carboxylic acid isopropylamide]"
17,0.032,"C[C@@H](CO)NC(=O)c1cnc(OCc2conc2-c2ccc(Cl)cc2)cn1 [Example 17, 5-[3-(4-Chloro-phenyl)-isoxazol-4-ylmethoxy]-pyrazine-2-carboxylic acid ((S)-2-hydroxy-1-methyl-ethyl)-amide]"
18,0.0116,"CC(C)NC(=O)c1cnc(OCc2conc2-c2ccc(Cl)cc2)cn1 [Example 16, 5-[3-(4-Chloro-phenyl)-isoxazol-4-ylmethoxy]-pyrazine-2-carboxylic acid isopropylamide]"
19,0.0137,"O=C(NC1CC1)c1cnc(OCc2conc2-c2ccccn2)cn1 [Example 21, 5-(3-Pyridin-2-yl-isoxazol-4-ylmethoxy)-pyrazine-2-carboxylic acid cyclopropylamide]"

row,Molecule,Ki [µM]
1,5-[(5-Methyl-3-phenyl-isoxazol-4-ylmethyl)-amino]-pyrazine-2-carboxylic acid cyclopropylamide [Example 10],0.0104
2,5-[(5-Methyl-3-phenyl-isoxazol-4-ylmethyl)-amino]-pyrazine-2-carboxylic acid (tetrahydro-pyran-4-yl)-amide [Example 11],0.0121
